Test results: US12215129B2, “Antibacterial cyclopeptides targeting acinetobacter and other gram-negative pathogens” (priority 2020, dated 2025)
Several values for one entry are separate records, joined by “and”; a condition that tells them apart may be missing. Identical values can stand only once. Like-named read-outs stand apart in the source and are kept apart here. Marks after values point to notes of the source that are not given here.

Legend:
[1] = human, in vivo; cited from earlier work
A. baumannii ATCC 17978 = test: Thigh infection neutropenic mouse model, efficacy (CFU/thigh); assay type: in vivo, Acinetobacter baumannii; settings: 30 mg/kg SC, BID, q12h
[2] = tested on: Acinetobacter baumannii (ATCC 19606)
[3] = tested on: clinical A. baumannii complex isolates

## CCCCCCCCCC(=O)N[C@@H](Cc1c[nH]c2ccccc12)C(=O)N[C@H](CC(N)=O)C(=O)N[C@@H](CC(=O)O)C(=O)N[C@@H]1C(=O)NCC(=O)N[C@@H](CCCN)C(=O)N[C@@H](CC(=O)O)C(=O)N[C@H](C)C(=O)N[C@@H](CC(=O)O)C(=O)NCC(=O)N[C@H](CO)C(=O)N[C@@H]([C@H](C)CC(=O)O)C(=O)N[C@@H](CC(=O)c2ccccc2N)C(=O)O[C@@H]1C [Daptomycin]
[1]
  Half Life: ~8 h
  Vss: ~0.1 L/kg
  clearance: ~0.15 mL/min/kg

## Colistin [reference compound]
A. baumannii ATCC 17978; 26 h, decrease in counts compared to the vehicle group
  Decrease (%): 100%
A. baumannii ATCC 17978; 26 h, difference in bacterial counts relative to the baseline group (2 h initial counts)
  Δ: −2.73^#
A. baumannii ATCC 17978; 26 h, individual animals
  CFU/thigh Time post inoculation 2, 26 h: 1.77 × 10^3 CFU/thigh and 5.73 × 10^3 CFU/thigh and 5.64 × 10^3 CFU/thigh and 1.98 × 10^3 CFU/thigh and 3.57 × 10^3 CFU/thigh
  Log (CFU/thigh) Time post inoculation 2, 26 h: 3.25 Log (CFU/thigh) and 3.76 Log (CFU/thigh) and 3.75 Log (CFU/thigh) and 3.30 Log (CFU/thigh) and 3.55 Log (CFU/thigh)
A. baumannii ATCC 17978; 26 h, mean of 5 animals
  CFU/thigh Time post inoculation 2, 26 h, Mean: 3.74 × 10^3 CFU/thigh
  Log (CFU/thigh) Time post inoculation 2, 26 h, Mean: 3.52* Log (CFU/thigh)
A. baumannii ATCC 17978; raw data, dilution 0, individual animals
  Dilution (CFU/plate) 0: 59 CFU/plate and 191 CFU/plate and 188 CFU/plate and 66 CFU/plate and 119 CFU/plate
A. baumannii ATCC 17978; raw data, dilution 10^1, individual animals
  Dilution (CFU/plate) 10^1: 3 CFU/plate and 20 CFU/plate and 21 CFU/plate and 8 CFU/plate and 13 CFU/plate
A. baumannii ATCC 17978; raw data, dilution 10^2, individual animals
  Dilution (CFU/plate) 10^2: 0 CFU/plate (3×) and 1 CFU/plate (2×)
A. baumannii ATCC 17978; raw data, dilution 10^3, individual animals
  Dilution (CFU/plate) 10^3: 0 CFU/plate
[2]
  MIC: 2 µg/mL
[3]; ARUP ABC 1
  MIC: 4 µg/mL
[3]; ARUP ABC 2
  MIC: 4 µg/mL
[3]; ARUP ABC 3
  MIC: >32 µg/mL
[3]; CDC AB282
  MIC: 1 µg/mL
[3]; CDC AB286
  MIC: 1 µg/mL
[3]; CDC AB299
  MIC: 2 µg/mL
[3]; CDC AB302
  MIC: 2 µg/mL
[3]; CDC AB303
  MIC: >32 µg/mL
[3]; CDC AB307
  MIC: 8 µg/mL
